Laboratory results reported in patent US20230096766A1, “AMINO ACID HAVING FUNCTIONAL GROUP CAPABLE OF INTERMOLECULAR HYDROGEN BONDING, PEPTIDE COMPOUND CONTAINING SAME AND METHOD FOR PRODUCTION THEREOF” (Chugai Seiyaku Kabushiki Kaisha, priority 2018, published 2023).
*1 amine or outer side, *2 acyl side, *3 side chain or, on linkers, in order; H or OH if unused. Where a SMILES comes first, the peptide text is derived from it. Bridges are numbered along the chain shown (N, C = ends). [ ]: non-standard residue; d: D form. The star is where a group is joined. ξ: configuration not given here. hPhe(3-OMe,4-CONHMe) = CNC(=O)c1ccc(CC[C@H](N)C(=O)O)cc1OC; X1 = COc1cc(C[C@H](N[*:1])C(=O)[*:2])ccc1C(=O)NO; Phe(4-COOH) = N[C@@H](Cc1ccc(C(=O)O)cc1)C(=O)O; NMePhe(3-Cl) = CN[C@@H](Cc1cccc(Cl)c1)C(=O)O; NMehPhe = CN[C@@H](CCc1ccccc1)C(=O)O; NMeF = CN[C@@H](Cc1ccccc1)C(=O)O; NMeGABA = CN(CCCC(=O)[*:2])[*:1]; NMeI = CC[C@H](C)[C@H](NC)C(=O)O; NMeL = CN[C@@H](CC(C)C)C(=O)O; Thr(3ξ) = CC(O)[C@H](N)C(=O)O; NMeV = CN[C@H](C(=O)O)C(C)C; NMeAbu = CC[C@H](NC)C(=O)O; NMeA = CN[C@@H](C)C(=O)O; Piperidide = C1CCN(*)CC1; dNMeA = CN[C@H](C)C(=O)O; NBuGly = CCCCNCC(=O)O; Isopentyl = CC(C)CC*; NPrGly = CCCNCC(=O)O; Ethyl(2-OH) = OCC*; N(OH)Me = CN(O)*; Sar = CNCC(=O)O; tBu = CC(C)(C)*

Experiment: in vitro
Conditions: human, Caco-2, Caco-2 (cm/sec)

Row | Structure (SMILES) | Papp [×10⁻⁶ cm/s]
1 | CCCCN1CC(=O)N(C)[C@@H](CC(C)C)C(=O)N[C@@H](COC(C)(C)C)C(=O)N(C)[C@@H]([C@@H](C)CC)C(=O)N(C)[C@@H](CC(C)C)C(=O)N[C@H](C(=O)N2CCCCC2)CC(=O)N[C@H](C)C(=O)N(C)[C@@H](Cc2ccccc2)C(=O)N[C@@H](Cc2ccc(C(=O)N(C)O)cc2)C(=O)N(C)[C@@H](CC(C)C)C(=O)N[C@@H]([C@@H](C)O)C1=O [AP250] ([dA][NMeF][Phe(4-COOH)](N(OH)Me)[NMeL]T[NBuGly][NMeL]S(tBu)[NMeI][NMeL]D-Piperidide; lactam N-11) | 0.12
2 | CC[C@H](C)[C@@H]1NC(=O)[C@H](CC(C)C)N(C)C(=O)CCCN(C)C(=O)C[C@@H](C(=O)N2CCCCC2)NC(=O)[C@H](CC(C)C)N(C)C(=O)[C@H](CC(C)C)N(C)C(=O)[C@H]([C@@H](C)O)NC(=O)[C@H](CC(C)C)N(C)C(=O)[C@H](Cc2ccc(C(=O)N(C)O)cc2)NC(=O)[C@H](CC(C)C)N(C)C(=O)[C@H](Cc2ccccc2)N(C)C1=O [AP251] ([NMeGABA][NMeL]I[NMeF][NMeL][Phe(4-COOH)](N(OH)Me)[NMeL]T[NMeL][NMeL]D-Piperidide; lactam N-11) | 0.03
3 | CC(C)C[C@@H]1NC(=O)[C@H](CC(C)C)N(C)C(=O)C[C@@H](C(=O)N2CCCCC2)NC(=O)[C@H](CC(C)C)N(C)C(=O)CN(C)C(=O)[C@H]([C@@H](C)O)NC(=O)[C@H](C(C)C)N(C)C(=O)[C@H](CC(C)C)N(C)C(=O)[C@H](Cc2ccc(C(=O)N(C)O)cc2)NC(=O)[C@H](CC(C)C)N(C)C(=O)[C@H](CC(C)C)N(C)C1=O [AP253] ([NMeL]L[NMeL][NMeL][Phe(4-COOH)](N(OH)Me)[NMeL][NMeV]T[Sar][NMeL]D-Piperidide; lactam N-11) | 0.12
4 | CCCCN1CC(=O)N(C)[C@@H](CC(C)C)C(=O)N(C)[C@@H](CC(C)C)C(=O)N[C@@H](COC(C)(C)C)C(=O)N(C)[C@@H](CC(C)C)C(=O)N[C@H](C(=O)N2CCCCC2)CC(=O)N(C)CC(=O)N(C)[C@@H](Cc2cccc(Cl)c2)C(=O)N[C@@H](Cc2ccc(C(=O)N(C)O)cc2)C(=O)N(C)[C@@H](CC(C)C)C(=O)N[C@@H]([C@@H](C)O)C1=O [AP254] ([Sar][NMePhe(3-Cl)][Phe(4-COOH)](N(OH)Me)[NMeL]T[NBuGly][NMeL][NMeL]S(tBu)[NMeL]D-Piperidide; lactam N-11) | 0.15
5 | CC[C@H](C)[C@@H]1NC(=O)[C@H](CC(C)C)N(C)C(=O)CN(C)C(=O)C[C@@H](C(=O)N2CCCCC2)NC(=O)[C@H](CC(C)C)N(C)C(=O)[C@H](Cc2ccc(C(=O)N(C)O)cc2)NC(=O)[C@H](CC(C)C)N(C)C(=O)[C@H](Cc2cccc(Cl)c2)N(C)C(=O)CN(C)C(=O)[C@H]([C@@H](C)O)NC(=O)[C@H](CC(C)C)N(C)C1=O [AP255] ([Sar][NMeL]I[NMeL]T[Sar][NMePhe(3-Cl)][NMeL][Phe(4-COOH)](N(OH)Me)[NMeL]D-Piperidide; lactam N-11) | 0.05
6 | CCCCN1CC(=O)N(C)[C@@H](CC(C)C)C(=O)N[C@@H](COC(C)(C)C)C(=O)N(C)[C@@H](Cc2ccccc2)C(=O)N(C)[C@@H](CC(C)C)C(=O)N[C@H](C(=O)N2CCCCC2)CC(=O)N[C@H](C(C)C)C(=O)N(C)[C@@H](C(C)C)C(=O)N[C@@H](Cc2ccc(C(=O)NO)c(OC)c2)C(=O)N(C)[C@@H](CC(C)C)C(=O)N[C@@H]([C@@H](C)O)C1=O [AP256] ([dV][NMeV][X1][NMeL]T[NBuGly][NMeL]S(tBu)[NMeF][NMeL]D-Piperidide; lactam N-11) | 0.08
7 | CCCCN1CC(=O)N(C)[C@@H](CC(C)C)C(=O)N[C@@H](Cc2ccc(C(=O)NO)c(OC)c2)C(=O)N(C)[C@@H](CC(C)C)C(=O)N(C)[C@@H](CC(C)C)C(=O)N[C@H](C(=O)N2CCCCC2)CC(=O)N[C@H](CC(C)C)C(=O)N(C)[C@@H](Cc2ccccc2)C(=O)N[C@@H](C(C)C)C(=O)N(C)[C@@H](CC(C)C)C(=O)N[C@@H]([C@@H](C)O)C1=O [AP257] ([dL][NMeF]V[NMeL]T[NBuGly][NMeL][X1][NMeL][NMeL]D-Piperidide; lactam N-11) | 0.03
8 | CCCCN1CC(=O)N(C)[C@@H](CC(C)C)C(=O)N(C)[C@@H](CC(C)C)C(=O)N[C@@H](COC(C)(C)C)C(=O)N(C)[C@@H](CC(C)C)C(=O)N[C@H](C(=O)N2CCCCC2)CC(=O)N(C)CC(=O)N(C)[C@@H](Cc2cccc(Cl)c2)C(=O)N[C@@H](Cc2ccc(C(=O)NO)c(OC)c2)C(=O)N(C)[C@@H](CC(C)C)C(=O)N[C@@H]([C@@H](C)O)C1=O [AP260] ([Sar][NMePhe(3-Cl)][X1][NMeL]T[NBuGly][NMeL][NMeL]S(tBu)[NMeL]D-Piperidide; lactam N-11) | 0.04
9 | CC[C@H](C)[C@@H]1NC(=O)[C@H](CC(C)C)N(C)C(=O)CN(C)C(=O)C[C@@H](C(=O)N2CCCCC2)NC(=O)[C@H](CC(C)C)N(C)C(=O)[C@H](Cc2ccc(C(=O)NO)c(OC)c2)NC(=O)[C@H](CC(C)C)N(C)C(=O)[C@H](Cc2cccc(Cl)c2)N(C)C(=O)CN(C)C(=O)[C@H](C(C)O)NC(=O)[C@H](CC(C)C)N(C)C1=O (stereo partly drawn) [AP261] ([Sar][NMeL]I[NMeL][Thr(3ξ)][Sar][NMePhe(3-Cl)][NMeL][X1][NMeL]D-Piperidide; lactam N-11) | 0.02
10 | CNC(=O)c1ccc(CC[C@@H]2NC(=O)[C@H](CC(C)C)N(C)C(=O)[C@H]([C@@H](C)O)NC(=O)[C@H](CC(C)C)N(C)C(=O)[C@H](CC(C)C)N(C)C(=O)[C@@H](C)N(C)C(=O)C[C@@H](C(=O)N3CCCCC3)NC(=O)[C@H](CC(C)C)N(C)C2=O)cc1OC [AP262] ([dNMeA][NMeL][NMeL]T[NMeL][hPhe(3-OMe,4-CONHMe)][NMeL]D-Piperidide; lactam N-8) | 0.17
11 | CC[C@H](C)[C@@H]1NC(=O)[C@H](CC(C)C)NC(=O)[C@H](CC(C)C)N(C)C(=O)[C@H](CC(C)C)NC(=O)C[C@@H](C(=O)N2CCCCC2)NC(=O)[C@H](CC(C)C)N(C)C(=O)[C@H]([C@@H](C)O)NC(=O)[C@H](CCc2ccc(C(=O)NC)c(OC)c2)NC(=O)[C@H](CC(C)C)N(C)C1=O [AP263] (L[NMeL]LI[NMeL][hPhe(3-OMe,4-CONHMe)]T[NMeL]D-Piperidide; lactam N-9) | 1.8
12 | CCCCN1CC(=O)N[C@@H](CC(C)C)C(=O)N2CCC[C@H]2C(=O)N(C)[C@@H](C(C)C)C(=O)N[C@@H](CCc2ccc(C(=O)NC)c(OC)c2)C(=O)N(C)[C@@H](Cc2ccccc2)C(=O)N(C)[C@@H](CC(C)C)C(=O)N[C@@H](CC(C)C)C(=O)N(C)[C@@H]([C@@H](C)CC)C(=O)N[C@H](C(=O)N2CCCCC2)CC(=O)N[C@H](C(C)C)C(=O)N[C@@H]([C@@H](C)O)C1=O [AP265] ([dV]T[NBuGly]LP[NMeV][hPhe(3-OMe,4-CONHMe)][NMeF][NMeL]L[NMeI]D-Piperidide; lactam N-12) | 0.46
13 | CC[C@H](C)[C@@H]1NC(=O)[C@H](Cc2ccccc2)N(C)C(=O)[C@H](CCc2ccc(C(=O)NC)c(OC)c2)NC(=O)[C@H](CC(C)C)N(C)C(=O)[C@H](C(C)C)NC(=O)[C@H](CC(C)C)N(C)C(=O)[C@H](CC(C)C)N(C)C(=O)CNC(=O)[C@H](CC)N(C)C(=O)C[C@@H](C(=O)N2CCCCC2)NC(=O)[C@H]([C@@H](C)O)NC(=O)[C@H](CC(C)C)N(C)C(=O)[C@H](CC(C)C)N(C)C1=O [AP266] ([NMeAbu]G[NMeL][NMeL]V[NMeL][hPhe(3-OMe,4-CONHMe)][NMeF]I[NMeL][NMeL]TD-Piperidide; lactam N-13) | < 0.0895
14 | CCCN1CC(=O)N(C)[C@@H](CC(C)C)C(=O)N[C@@H](COCCC(C)C)C(=O)N(C)[C@@H](Cc2ccccc2)C(=O)N(C)[C@@H](CC(C)C)C(=O)N[C@H](C(=O)N2CCCCC2)CC(=O)N[C@H](C(C)C)C(=O)N(C)[C@@H](CCc2ccccc2)C(=O)N[C@@H](COCCO)C(=O)N(C)[C@@H](CC(C)C)C(=O)N[C@@H]([C@@H](C)O)C1=O [Compound A01] ([dV][NMehPhe]S(Ethyl(2-OH))[NMeL]T[NPrGly][NMeL]S(Isopentyl)[NMeF][NMeL]D-Piperidide; lactam N-11) | 0.6
15 | CC(C)C[C@@H]1NC(=O)[C@H](CCc2ccccc2)N(C)C(=O)[C@@H](C(C)C)NC(=O)C[C@@H](C(=O)N2CCCCC2)NC(=O)[C@H](CC(C)C)N(C)C(=O)[C@H](Cc2cccc(Cl)c2)N(C)C(=O)[C@H](COCCO)NC(=O)[C@H](CC(C)C)N(C)C(=O)CN(C)C(=O)[C@H]([C@@H](C)O)NC(=O)[C@H](CC(C)C)N(C)C1=O [Compound A02] ([dV][NMehPhe]L[NMeL]T[Sar][NMeL]S(Ethyl(2-OH))[NMePhe(3-Cl)][NMeL]D-Piperidide; lactam N-11) | 0.45
16 | CC(C)C[C@@H]1NC(=O)[C@H](CCc2ccccc2)N(C)C(=O)[C@H](CCc2ccccc2)N(C)C(=O)[C@H](COCCO)NC(=O)[C@H](CC(C)C)N(C)C(=O)CCCN(C)C(=O)C[C@@H](C(=O)N2CCCCC2)NC(=O)[C@H](CC(C)C)N(C)C(=O)[C@H](CC(C)C)N(C)C(=O)[C@H]([C@@H](C)O)NC(=O)[C@H](CC(C)C)N(C)C1=O [Compound A03] ([NMeGABA][NMeL]S(Ethyl(2-OH))[NMehPhe][NMehPhe]L[NMeL]T[NMeL][NMeL]D-Piperidide; lactam N-11) | 0.32
17 | CC[C@H](C)[C@@H]1NC(=O)[C@H](CC(C)C)N(C)C(=O)CCCN(C)C(=O)C[C@@H](C(=O)N2CCCCC2)NC(=O)[C@H](CC(C)C)N(C)C(=O)[C@H](CC(C)C)N(C)C(=O)[C@H]([C@@H](C)O)NC(=O)[C@H](CC(C)C)N(C)C(=O)[C@H](COCCO)NC(=O)[C@H](CCc2ccccc2)N(C)C(=O)[C@H](CCc2ccccc2)N(C)C1=O [Compound A04] ([NMeGABA][NMeL]I[NMehPhe][NMehPhe]S(Ethyl(2-OH))[NMeL]T[NMeL][NMeL]D-Piperidide; lactam N-11) | 0.41
18 | CCCN1CC(=O)N(C)[C@@H](CC(C)C)C(=O)N[C@H](C(=O)N2CCCCC2)CC(=O)N(C)[C@@H](C)C(=O)N[C@@H](COCCO)C(=O)N(C)[C@@H](CC(C)C)C(=O)N(C)[C@@H](Cc2cccc(Cl)c2)C(=O)N[C@@H](CC(C)C)C(=O)N(C)[C@@H](CCc2ccccc2)C(=O)N(C)[C@@H](CC(C)C)C(=O)N[C@@H]([C@@H](C)O)C1=O [Compound A05] ([NMeA]S(Ethyl(2-OH))[NMeL][NMePhe(3-Cl)]L[NMehPhe][NMeL]T[NPrGly][NMeL]D-Piperidide; lactam N-11) | 0.9
